Ki data for two compounds are collected here from publication PMC10610038, “New Insights into the Enhancement of Adventitious Root Formation Using N,N′-Bis(2,3-methylenedioxyphenyl)urea” (Plants, 2023).

The target in assay [1] is T1, ZmCKX1 (cytokinin oxidase/dehydrogenase) (Zea mays, UniProt Q9T0N8).
T1 construct: gene CKX1
The assay is described as follows: DCPIP reduction assay with purified ZmCKX1, trans-zeatin substrate; Lineweaver-Burk; Ki from IC50 ([…]) by Cheng-Prusoff. Format: biochemical.

The target of assay [2] is T1, ZmCKX1 (cytokinin oxidase/dehydrogenase). The assay is described as follows: DCPIP reduction assay with purified ZmCKX1, trans-zeatin substrate; Ki from IC50 ([…]) by Cheng-Prusoff. Type of assay: biochemical.

T1 sequence (Q9T0N8 19-534): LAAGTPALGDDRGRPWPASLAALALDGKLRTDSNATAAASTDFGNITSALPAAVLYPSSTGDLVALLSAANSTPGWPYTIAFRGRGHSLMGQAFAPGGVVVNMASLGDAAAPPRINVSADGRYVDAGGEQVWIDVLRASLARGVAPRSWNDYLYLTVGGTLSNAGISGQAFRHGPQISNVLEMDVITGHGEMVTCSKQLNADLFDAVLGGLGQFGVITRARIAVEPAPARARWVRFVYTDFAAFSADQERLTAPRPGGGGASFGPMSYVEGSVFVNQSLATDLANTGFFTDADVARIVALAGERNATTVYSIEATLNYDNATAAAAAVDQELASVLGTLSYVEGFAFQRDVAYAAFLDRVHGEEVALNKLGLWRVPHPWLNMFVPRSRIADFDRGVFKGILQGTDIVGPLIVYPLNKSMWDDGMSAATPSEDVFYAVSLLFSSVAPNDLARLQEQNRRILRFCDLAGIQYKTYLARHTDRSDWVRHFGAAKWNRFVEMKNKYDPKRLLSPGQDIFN

For the compound `O=C(Nc1cccc2c1OCO2)Nc1cccc2c1OCO2` [2,3-MDPU, N,N′-bis-(2,3-methylenedioxyphenyl)urea], affinity in assay [1] was put at a Ki of 1600 nM.
Take `O=C(Nc1ccccc1)Nc1cnns1` [TDZ, N-phenyl-N′-(1,2,3-thiadiazol-5-yl)urea]: in assay [2], the inhibition constant (Ki) amounted to 1400 nM.
